The test system of experiment [1] is A549 cells (a lung cancer cell line). Nature of the experiment: Cell growth (MTT) with recovery (wash) phase after naltrexone. In kind it is cell-based. The conditions noted are these: 1 nM and 10 nM naltrexone 48 h then 24 h drug-free vs 72 h continuous. As for the experimental part:
(§1) (A) A549 cells (a lung cancer cell line) and (B) HCT116 cells (a colorectal carcinoma cell line), were cultured for 48 h in 1 nM and 10 nM (low dose) naltrexone (LDN) and in 1 μM and 10 μM (standard dose) naltrexone (NTX). Cells were either then washed and allowed to grow in drug-free medium for 24 h (wash) or continuously cultured in naltrexone for a total of 72 h (72); cell was viability assessed by absorbance readings. Effect of the wash step on HCT116 cells were also measured by (C) 3-(4,5-dimethylthiazol-2-yl)-2,5-diphenyltetrazolium bromide (MTT) colorimetric assay, (D) cell counting and (E) percentage of viable cells.
(§2) To study the effect of each agent on cell growth, cells growing exponentially were added to 96-well plates at a density of 3×10^4/well. Drugs were then added to the wells, ensuring an equal volume of 200 μl across the plate. Cell number was measured at 72 hr using a standard methylthiazoletetrazolium (MTT)-based assay without modifications. Briefly, MTT was added to each well to give a working concentration of 0.4 mg/ml, and plates returned to the incubator for a further 1 hr. After this time, the medium was aspirated off, 200 μl of DMSO was then added to each well and plates agitated gently for 5 min before measuring optical density at 540 nm in each well. […]

Experiment [2] relates to HCT116 cells (a colorectal carcinoma cell line). Nature of the experiment: Cell growth (MTT, cell counting, viability) with recovery (wash) phase after naltrexone. Format: cell-based, human. The conditions noted are these: 1 nM and 10 nM naltrexone 48 h then 24 h drug-free vs 72 h continuous. As to the method: as §1, §2
Experiment [3] relates to T98G cells (glioma cell line). Nature of the experiment: Cell growth (absorbance) with recovery (wash) phase after naltrexone. Format: cell-based. The conditions noted are these: naltrexone 48 h then 24 h drug-free vs 72 h continuous. As to the method:
(§3) To study the effect of each agent on cell growth, cells growing exponentially were added to 96-well plates at a density of 3×10^4/well. Drugs were then added to the wells, ensuring an equal volume of 200 μl across the plate. Cell number was measured at 72 hr using a standard methylthiazoletetrazolium (MTT)-based assay without modifications. Briefly, MTT was added to each well to give a working concentration of 0.4 mg/ml, and plates returned to the incubator for a further 1 hr. After this time, the medium was aspirated off, 200 μl of DMSO was then added to each well and plates agitated gently for 5 min before measuring optical density at 540 nm in each well. The effect of recovery, where a wash step was included, was studied by removing naltrexone-containing medium and replacing this with fresh drug-free medium after 48 hr, before assessing cell number at the 72 hr time-point. Cell counting was performed by under light microscopy using staining with trypan blue to aid the discrimination of dead/dying cells. See description of FIGS. 1 and 2.

Experiment [4] relates to U87MG cells (glioma cell line). Described as above. Format: cell-based. The conditions noted are these: naltrexone 48 h then 24 h drug-free vs 72 h continuous. As for the experimental part:
as §3

Experiment [5] relates to Bcl-2-associated death promoter (BAD) protein. The experiment can be described thus: Western blot/densitometry of cell cycle proteins in HCT116 cells. Format: cell-based, human. The conditions noted are these: 10 nM naltrexone (LDN), 48 h. As to the method:
(§4) Methodologically, HCT116 cells were treated with NTX and LDN for 48 h before determination of cellular proteins as labelled in the figure. The intensities of each of the bands indicate the level at which these proteins were expressed, which were enumerated by density analysis.
(§5) Cells were treated with 10 μM naltrexone (NTX) or 10 nM naltrexone (LDN) for 48 hr before they were harvested, and total cellular protein was solubilised in lysis buffer and resolved by Tris-glycine electrophoresis using a 4-12% bis-tris gradient-gel. Following transfer of proteins to 0.45-lm nitrocellulose membranes, blocking was performed in 5% (w/v) nonfat milk in TTBS [0.5% (v/v) Tween-20 in TBS (50 mM Tris, 150 mM NaCl, pH 8.0)]. Primary antibody probing for the protein specified in the figure were performed overnight at 4° C. before secondary probing using horseradish peroxidase-conjugated anti-species IgG1. Bands were visualised by the ECL-plus detection system. Densitometry analysis was performed using proprietary analysis software. RNA was extracted from these cells for gene expression analysis. RNA was purified by Trizol, followed by precipitation with isopropanol. […] Equal amounts (750 ng) of cRNA were hybridised to the Illumina human HT12-v3 arrays for 18 hr and subsequently processed according to manufacturer's instructions before scanning on an Illumina BeadArray Reader. […]
Background: In western blotting, separated proteins are transferred to a membrane and probed.

Experiment [6] concerns phosphorylated AKT. Described as above. The conditions noted are these: 10 nM naltrexone (LDN), 48 h. Format: cell-based, human. As to the method:
as §4, §5

Experiment [7] concerns murine neuroblastoma. The conditions noted are these: murine xenograft model; cited from earlier work.
For experiment [8], the system named is human colon cancer cell growth. The conditions noted are these: murine xenograft model; cited from earlier work.
The test system of experiment [9] is human ovarian cancer cells. The conditions noted are these: short-term naltrexone exposure; cited from earlier work.

On to `O=C1CC[C@@]2(O)[C@H]3Cc4ccc(O)c5c4[C@@]2(CCN3CC2CC2)[C@H]1O5` [LDN, morphinan-6-one, 17-(cyclopropylmethyl)-4,5-epoxy-3,14-di hydroxy-(5α)], for which the “cell numbers, recovery (wash) phase vs continuous administration” value in experiment [1], in experiment [2], in experiment [3] and in experiment [4] was “greater reduction in cell numbers” in each case. Also, in [5], the “BAD protein level relative to untreated cells” value is “upregulated”. Besides, the “phosphorylated AKT level relative to untreated cells” value in [6] was “downregulated”. Further, the “growth of murine neuroblastoma” value in [7] was “inhibition”. Further, the “growth of human colon cancer cells” value in [8] is “inhibition”. Further, the DNA synthesis result in experiment [9] is “decrease in DNA synthesis”.

The record behind these values is US11065245B2, “Priming of cancer cells with low dose naltrexone” (CANCER VACCINE INSTITUTE, priority 2014, dated 2021).
